Experimental data: patent US9782428B2, “Method for generation of broadly neutralizing anti-pathogen antibodies” (Northeastern University, priority 2013, dated 2017)
“Also recorded” adds a separate entry of the source.

Assays:
[1] = system: germinal center B cells; assay: Flow cytometric analysis of germinal center B cells from immunized mice treated with CGS-21680 (Experiments 1 and 3); type: in vivo
Procedure: All mice were sacrificed on day 6.
All mice were sacrificed on day 21.
Flow cytometric analysis of germinal center B cells from Experiment 1 (gated as lymphocytes, B220+, Gl-7 positive, CD38 negative; FIGS. 10E and 10F) and Experiment 3 (B220 positive, Gl-7 hi, IgD-negative; FIG. 10D) was performed. The flow cytometric analysis was performed according to the protocol discussed in Example.

[2] = system: resting B cells; assay: In vitro class switch recombination IgM to IgG1 in resting B cells stimulated with anti-CD40 and IL-4; type: cell-based, mice; settings: four days in culture; for class switching of IgM to IgG1: gated on B220+, vs untreated B cells
Procedure: Female C57 B/6 mice were sacrificed and spleens harvested and generated into single cell suspensions. Lymphocytes were isolated using Ficoll separation (GE Healthcare) and interface layer was collected after centrifugation (1000×g for 10 minutes). Cells were FC Blocked as described above and then stained with CD43 FITC (clone S7) and then washed and stained with anti-FITC microbeads (Miltenyi) at 4° C. for 30 minutes. Cells were then depleted using magnetic separation autoMACS deplete(s) program (Miltenyi). The depleted fraction was used for experiments as these consist of resting B cells.
B cells plated in a 24 well plate at 200,000 cells pre well with IMDM media, as described in Example 3 (1 ml media/well). B cells were then stimulated using anti-CD40 antibody (2.5 μg/ml clone IC-10 eBiosciences) and recombinant mouse IL-4 (10 ng/ml, R&D). […] All stimulating reagents were added at the seeding of the culture on day 0 and no other drugs were added thereafter.
After four days in culture, amount of class switch to IgG1 was determined by flow cytometric analysis by staining with anti-mouse IgM, IgG1, and B220. Plots are all gated on B220+ cells (FIG. 8A-8F)

[3] = system: Gs coupled protein receptor; settings: dopamine at day 44 and day 62 plus inspiration of hyperoxic gas mixture; day 47 and day 65; vs untreated mice
Procedure: 12 male wild type C57 B/6 mice 10-12 weeks of age are immunized as described in Example 1. At day 21, the mice are given an immune boost of 1 μg NP-OVA with adjuvant via intraperitoneal injection. At day 42, the mice are given an immune challenge of 1 μg NP-OVA without adjuvant via tail vein injection. […] Samples at 5 days and 23 days post immune challenge (i.e., day 47 and day 65 of the assay) will be subjected to ELISA measurement for NIP-25.

[4] = Experiment 1, 5 subcutaneous injections 1 mg/kg days 4-6, sacrificed day 6

Structure (SMILES) | amount of class switched NP-PE binding cells [1, 4] | proportion of class switched IgG1 germinal center B cells [1, 4] | proportion of class switched IgG1 germinal center B cells ([1]; Experiment 1, 5 subcutaneous injections 1 mg/kg days 4-6, sacrificed day 6, listed as CGS-21680) | frequency of germinal center B cells ([1]; Experiment 3, 1 mg/kg subcutaneous twice daily day 8-20, sacrificed day 21, compared to control) | class switching of IgM to IgG1 ([2]; 10 μM) | class switching of IgM to IgG1, dependence on concentration ([2]; 100 nM, 1 μM, 10 μM) | class switching of IgM to IgG1 ([2]; 100 nM) | class switching of IgM to IgG1 ([2]; 1 μM) | levels of NIP-25 [3]
CCNC(=O)[C@H]1O[C@@H](n2cnc3c(N)nc(NCCc4ccc(CCC(=O)O)cc4)nc32)[C@H](O)[C@@H]1O [CGS21680] | higher amount | enhanced class switching | increased proportion | decrease | has class switching |  |  |  | 
CCNC(=O)[C@H]1O[C@@H](n2cnc3c(N)ncnc32)[C@H](O)[C@@H]1O [NECA, N-ethylcarboxyamidoadenosine] |  |  |  |  | has class switching | class switching increases as the concentration of NECA increases | increases the class switching; also recorded: has class switching | has class switching | 
NCCc1ccc(O)c(O)c1 [dopamine] |  |  |  |  |  |  |  |  | higher levels
